Marks after values point to notes of the source that are not given here.
Tests used:
[1] = tested on: Balb/c mice; test: plasma extravasation in the ear pinna of the mouse induced by peptide P6-11 of substance P; format: in vivo; details: P 6-11
[2] = tested on: Swiss 3T3 fibroblasts; test: mastoparan-dependent release of [3H]-arachidonic acid in Swiss 3T3 fibroblasts; format: cell-based
Protocol: (§1) cPLA2-dependent mechanism, for example ATP, mastoparan, bombesin;
(§2) The cells are initially incubated with various concentrations of the compound under examination for 60 minutes or with a predefined concentration of 100 μM for various time intervals (15-180 minutes), washed two times with HBSS (Hank's Balanced Salt Solution, in the presence of Ca2+ and Mg2+ ions) added with 10 mM Hepes and 0.2% BSA—in absence of free fatty acids, pH 7.4 and stimulated with 100 μM ATP in the described buffer for 10 minutes at 37° C. The supernatant was collected in scintillation cuvettes for determination. The results are expressed as a percentage of the total release of [3H]-arachidonic acid.
Preloaded radioactively labeled cells were pre-incubated with various concentrations of the Example 4a for 60 minutes and then stimulated with 100 μM mastoparan for 10 minutes. The results are expressed as the mean±SE of two points in 3 separate experiments.

[3] = tested on: cPLA2; test: release of arachidonic acid induced by the activation of cPLA2 in various cellular systems (overall statement); format: cell-based; details: all the cellular systems tested
Protocol: Evaluation of the effects of the L-α-glycero-phospho-D-mio-inositol autacoid coded example 4a on the release of arachidonic acid induced by cPLA2 in various cellular systems.
The cultures are stimulated to release arachidonic acid using various stimuli:
as §1, §2

[4] = tested on: Swiss 3T3 fibroblasts; test: release of [3H]-arachidonic acid from Swiss 3T3 fibroblasts stimulated with ATP; format: cell-based
Protocol: as §1, §2
(§3) Preloaded cells were pre-incubated with various concentrations of the Example 4a for 60 minutes and then stimulated with 100 μM ATP for 10 minutes. The results are expressed as the mean±SE of two points in 3 separate experiments.

[5] = tested on: Balb/c mice; test: plasma extravasation in the ear pinna of the mouse induced by substance P; details: compound 5 mg/kg endovenous
[6] = solubility in water; format: physicochemical
[7] = solubility in organic solvents; format: physicochemical
[8] = tested on: FRTL5 cells; test: release of [3H]-arachidonic acid from FRTL5 cells stimulated with ATP; format: cell-based, rat; details: ATP 100 μM 10 minutes
Protocol: FRTL5, cell line of epithelial cells from rat thyroid grown in culture. Briefly, the cells were cultured in Coon's F12 medium modified according to Ham and supplemented with 5% bovine serum, 20 mM glutamine and a mixture of six hormones. (6H-thyrotropin, insulin, transferring, cortisol, somatostatin, glicil-L-istidil-L-lysine acetate) at 37° C. in a humidified atmosphere in 5% CO2, 95% air medium changed every 3-4 days. […]
as §2
Preloaded cells are incubated with 100 μM of compound of the Example 4a for different time intervals and then stimulated with ATP (100 μM) for 10 minutes. The results are expressed as the mean±SE of two points in 3 separate experiments. The stimulation of control cells was generally 4-5 times the basal value in the corresponding intervals.
as §3

[9] = tested on: Swiss 3T3 fibroblasts; test: bombesin-dependent release of [3H]-arachidonic acid in Swiss 3T3 fibroblasts; format: cell-based; details: then bombesin 10 minutes
Protocol: as §1, §2
Preloaded cells were pre-incubated with various concentrations of the Example 4a for 60 minutes and then stimulated with bombesin for 10 minutes. The results are expressed as the mean±SE of two points in 3 separate experiments.

[10] = tested on: FRTL5 cells; test: release of [3H]-arachidonic acid induced by ionomicin in FRTL5 cells (cPLA2-independent); format: cell-based, rat; details: for Release of [^3H]-arachidonic acid: then 10 μM ionomicin 30 minutes
Protocol: FRTL5, cell line of epithelial cells from rat thyroid grown in culture. Briefly, the cells were cultured in Coon's F12 medium modified according to Ham and supplemented with 5% bovine serum, 20 mM glutamine and a mixture of six hormones. (6H-thyrotropin, insulin, transferring, cortisol, somatostatin, glicil-L-istidil-L-lysine acetate) at 37° C. in a humidified atmosphere in 5% CO2, 95% air medium changed every 3-4 days.
cPLA2-independent mechanism, for example Ca2+ ionophore, ionomicin.
as §2
Preloaded cells were pre-incubated with various concentrations of the Example 4a for 60 minutes and then stimulated with 10 μM ionomicin for 30 minutes. The results are expressed as the mean±SE of two points in 3 separate experiments.

[11] = compound 5 mg/kg endovenous 30 minutes before
[12] = compound 10 mg/Kg endovenous 30 minutes before

**Q.** With “L-α-glycero-phospho-D-mio-inositol calcium salt [Example 2]” as the compound, how does the “Absorbance (Evan's Blue, 620 nm)” value [1, 11] read?
**A.** 0.092 ± 0.021

**Q.** What about the “Absorbance (Evan's Blue, 620 nm)” value [1, 12] of the same compound?
**A.** 0.079 ± 0.022•

**Q.** Which “Release of [^3H]-arachidonic acid % basal” value ([2]; stimulus alone: 100 μM mastoparan 10 minutes, no test compound) does the source give for Mastoparan [reference compound] here?
**A.** 150 ± 12 % basal

**Q.** For `O=P([O-])(OCC(O)CO)OC1C(O)C(O)C(O)C(O)C1O.[Na+]` [Example 4, L-α-glycerol-phospho-D-mio-inositol sodium salt], which “effect on release of arachidonic acid induced by the activation of the cPLA2 (in words)” value [3] is on record?
**A.** more potent effect

**Q.** With `Nc1ncnc2c1ncn2[C@@H]1O[C@H](COP(=O)(O)OP(=O)(O)OP(=O)(O)O)[C@@H](O)[C@H]1O` [ATP, reference compound] as the compound, how does the “Release of [^3H]-arachidonic acid % basal” value ([4]; stimulus alone: 100 μM ATP 10 minutes, no test compound) read?
**A.** 149 ± 11 % basal

**Q.** Which “Absorbance (Evan's Blue, 620 nm)” value [1, 11] does the source give for `NCCCC[C@H](N)C(=O)O.O=P(O)(OCC(O)CO)OC1C(O)C(O)C(O)C(O)C1O` [Example 6, L-α-glycero-phospho-D-mio-inositol lysine salt] here?
**A.** 0.131 ± 0.022

**Q.** What about the “Absorbance (Evan's Blue, 620 nm)” value [1, 12] of the same compound?
**A.** 0.072 ± 0.010•

**Q.** And the “Absorbance (Evan's Blue, 620 nm)” value [5]?
**A.** 0.239 ± 0.015

**Q.** With “L-α-glycero-phospho-D-mio-inositol zinc salt [Example 3]” as the compound, how does the “effect on release of arachidonic acid induced by the activation of the cPLA2 (in words)” value [3] read?
**A.** more potent effect

**Q.** For `C[N+](C)(C)CCO.O=P([O-])(OCC(O)CO)OC1C(O)C(O)C(O)C(O)C1O` [Example 5, L-α-glycero-phospho-D-mio-inositol choline salt], which “Absorbance (Evan's Blue, 620 nm)” value [5] is on record?
**A.** 0.222 ± 0.010

**Q.** What does the source list for `CCCC[N+](CCCC)(CCCC)CCCC.O=P([O-])(OCC(O)CO)OC1C(O)C(O)C(O)C(O)C1O` [Example 8, L-α-glycero-phospho-D-mio-inositol tetrabutylammonium salt]?
**A.** solubility in water [6]: >10000 µg/mL; solubility in organic solvents ([7]; in DMF): ≧10 mg/ml in DMF; solubility in organic solvents ([7]; in words): slightly soluble in organic solvents,

**Q.** Which results are given for `O=P([O-])(OCC(O)CO)OC1C(O)C(O)C(O)C(O)C1O.[K+]` [Example 4a, L-α-glycero-phospho-D-mio-inositol potassium salt]?
**A.** Release of [^3H]-arachidonic acid % inhibition ([8]; 0.005 μM compound, 60 minutes preincubation): 10 ± 2 % inhibition; Release of [^3H]-arachidonic acid % inhibition ([8]; 0.01 μM compound, 60 minutes preincubation): 35 ± 5 % inhibition; Release of [^3H]-arachidonic acid % inhibition ([8]; 0.1 μM compound, 60 minutes preincubation): 41 ± 2 % inhibition; Release of [^3H]-arachidonic acid % inhibition ([8]; 1.0 μM compound, 60 minutes preincubation): 52 ± 3 % inhibition; Release of [^3H]-arachidonic acid % inhibition ([8]; 10 μM compound, 60 minutes preincubation): 60 ± 8 % inhibition; Release of [^3H]-arachidonic acid % inhibition ([8]; 50 μM compound, 60 minutes preincubation): 70 ± 4 % inhibition; Release of [^3H]-arachidonic acid % inhibition ([8]; 100 μM compound, 15 minutes of preincubation): 30 ± 4 % inhibition; Release of [^3H]-arachidonic acid % inhibition ([8]; 100 μM compound, 30 minutes of preincubation): 42 ± 5 % inhibition; Release of [^3H]-arachidonic acid % inhibition ([8]; 100 μM compound, 60 minutes of preincubation): 70 ± 4 % inhibition; Release of [^3H]-arachidonic acid % inhibition ([8]; 100 μM compound, 60 minutes preincubation): 92 ± 2 % inhibition; Release of [^3H]-arachidonic acid % inhibition ([8]; 100 μM compound, 90 minutes of preincubation): 72 ± 5 % inhibition; Release of [^3H]-arachidonic acid % inhibition ([8]; 100 μM compound, 120 minutes of preincubation): 71 ± 6 % inhibition; Release of [^3H]-arachidonic acid % inhibition ([8]; 100 μM compound, 180 minutes of preincubation): 92 ± 9 % inhibition; Release of [^3H]-arachidonic acid % basal ([4]; 50 μM compound 60 minutes, then 100 μM ATP 10 minutes): 80 ± 9 % basal; Release of [^3H]-arachidonic acid % basal ([4]; 100 μM compound 60 minutes, then 100 μM ATP 10 minutes): 70 ± 4 % basal; Release of [^3H]-arachidonic acid % basal ([2]; 50 μM compound 60 minutes, then 100 μM mastoparan 10 minutes): 90 ± 3 % basal; Release of [^3H]-arachidonic acid % basal ([2]; 100 μM compound 60 minutes, then 100 μM mastoparan 10 minutes): 80 ± 4 % basal; Release of [^3H]-arachidonic acid % basal ([9]; 50 μM compound 60 minutes): 120 ± 3 % basal; Release of [^3H]-arachidonic acid % basal ([9]; 100 μM compound 60 minutes): 90 ± 4 % basal; Release of [^3H]-arachidonic acid ([10]; 50 μM compound 60 minutes): 720 ± 30; Release of [^3H]-arachidonic acid ([10]; 100 μM compound 60 minutes): 450 ± 14; effect on release of arachidonic acid induced by stimuli not related to cPLA2 (in words) ([10]; calcium ionophore): does not induce reduction of the release of arachidonic acid; Absorbance x10^−2 ([1]; compound 0.5 mg/kg endovenous (Table 8)): 54 ± 4* x10^−2; Absorbance x10^−2 ([1]; compound 1.5 mg/Kg endovenous (Table 8)): 57 ± 7* x10^−2; Absorbance x10^−2 ([1]; compound 5 mg/Kg endovenous (Table 8)): 34 ± 8* x10^−2; Absorbance (Evan's Blue, 620 nm) [1, 11]: 0.081 ± 0.027; effect on release of arachidonic acid induced by the activation of the cPLA2 (in words) [3]: reduce in a time and concentration dependent manner the release of arachidonic acid
